The first experiment relates to 293T, C2C12 or MC38 cells. Briefly: SamRNA-GFP transfection efficiency of LNPs by flow cytometry. The class given is cell-based. The conditions noted are these: LNP-SamRNA-GFP formulated with the lipid; FIGS. 4-6, 8-10. The method, then:
The delivery system used to deliver the GFP-mRNA transfect are LNPs formulated using 12 individual ionizable lipids synthesized by three-component reactions. To generate the LNP encapsulated self-amplifying mRNA, the ionizable lipids of the present disclosure were dissolved in ethanol and directly added into an ethanol solution containing DOPE, cholesterol and DMG-PEG2000 at predetermined molar ratio. Self-amplifying mRNA encoding GFP sequences aqueous solution was mixed and the LNP mixture (100 ng mRNA) was added to a 96-well plate pre-seeded with MC38, C2C12 or 293T cells. The cells were incubated at 5% CO2 and 37° C. overnight. The GFP mRNA transfection efficiency was measured by flow cytometry.
E6, an ionizable lipid of the disclosure, was formulated into LNPs with 1,2-Dioleoyl-sn-glycero-3-phosphoethanolamine (DOPE), cholesterol (Chol), methoxypolyethylene glycol (DMG-PEG2000) with a mole ratio of 50/10/38.5/1.5 (ionizable lipid/DOPE/Chol/DMG-PEG2000) encapsulated self-amplifying mRNA or DNA encoding with reporter genes either green fluorescent protein (samRNA-GFP or DNA-CMV-EGFP) or firefly Luciferase (samRNA-LUC). Formulations containing 100 ng of self-amplifying mRNA were incubated to a well of 96-well plate with 60-70% confluent of HEK293, or C2C12, or MC38 cells (FIGS. 10, 23). The transfection efficiency was determined by flow cytometry for detection of GFP, or plate reader for detection of luciferase. LNP formulated using FDA approved ionizable lipid MC3 was used as a control (FIG. 10).
(§1) The LNPs containing SamRNA-GFP (or SamRNA-LUC, 100 ng/well) were added into 96-well plate which was pre-seeded with 293T, C2C12 or MC38 cells. After 24 hours incubation at 37° C. and 5% CO2, the luciferase SamRNA transfection efficiency was measured by plate reader (Perkin Elmer Envision 2104). The GFP SamRNA transfection efficiency was measured by flow cytometry (BD FACSymphony™ A5 SE Cell Analyzer).
With `CCCCCCCCCN(CCCCCCCCC)CCC(=O)N1CN(C(=O)CCN(CCCCCCCCC)CCCCCCCCC)CN(C(=O)CCN(CCCCCCCCC)CCCCCCCCC)C1` [E2, 1,1′,1″-(1,3,5-triazinane-1,3,5-triyl)tris(3-(dinonylamino)propan-1-one)], the “delivery of mRNA-GFP compared with FDA approved ionizable lipid MC3” value is on record as “more effectively deliver mRNA-GFP”.
Still for that read-out and setting: then `CCCCCCCCN(CCCCCCCC)C(c1ccc(C(c2ccccc2O)N(CCCCCCCC)CCCCCCCC)cc1)c1ccccc1O` (stereo not drawn) [TP1A11, 2,2′-(1,4-phenylenebis((dioctylamino)methylene))diphenol], with “more effectively deliver mRNA-GFP”.
Same read-out and setting: next, `CCCCCCCCCCCCCN(CCCCCCCCCCCCC)C(c1ccc(CCCCCCCCCCCC)cc1)c1ccccc1O` (stereo not drawn) [TP3F11, 2-((ditridecylamino)(4-dodecylphenyl)methyl)phenol]: “more effectively deliver mRNA-GFP”; `CCCCCCCCCCCCCCN(CCCCCCCCCCCCCC)C(c1ccc(CCCCCCCCCCCC)cc1)c1ccccc1O` (stereo not drawn) [TP3G11, 2-((ditetradecylamino)(4-dodecylphenyl)methyl)phenol]: “more effectively deliver mRNA-GFP”; `CCCCCCCCCCCCCCN(CCCCCCCCCCCCCC)C(c1cccs1)c1ccccc1O` (stereo not drawn) [TP4G11, 2-((ditetradecylamino)(thiophen-2-yl)methyl)phenol]: “more effectively deliver mRNA-GFP”.

A further experiment has as its system 293T cells. Briefly: SamRNA-LUC transfection efficiency of LNPs by plate reader (luminescence). The class given is cell-based. The conditions noted are these: LNP-SamRNA-Luc formulated with the lipid, incubated overnight, FIG. 11. The method, then:
as §1
For `CCCCCCCCCCCCCCCC(=O)N(C(CCCCCCC)CCCCCCC)C(C(=O)NC12CC3CC(CC(C3)C1)C2)C1CCN(CC)CC1` (stereo not drawn) [P56A1, N-(2-(((1s,3s)-adamantan-1-yl)amino)-1-(1-ethylpiperidin-4-yl)-2-oxoethyl)-N-(pentadecan-8-yl)palmitamide], the “bioluminescence signals compared with MC3-LNP-SamRNA-Luc” value was “stronger bioluminescence signals than MC3-LNP-SamRNA-Luc”.
Regarding `CCCCCCCCCCCCCCCCC(=O)N(C(CCCCCCC)CCCCCCC)C(C(=O)NC12CC3CC(CC(C3)C1)C2)C1CCN(CC)CC1` (stereo not drawn) [P56B1, N-(2-(((1s,3s)-adamantan-1-yl)amino)-1-(1-ethylpiperidin-4-yl)-2-oxoethyl)-N-(pentadecan-8-yl)heptadecanamide], the “bioluminescence signals compared with MC3-LNP-SamRNA-Luc” value is “stronger bioluminescence signals than MC3-LNP-SamRNA-Luc”.

A further experiment deals with 293T cells. Briefly: GFP expression in 293T cells treated with LNP-SamRNA-GFP (formulation optimization, FACS). The class given is cell-based. The note with it: LNPs with self-amplifying mRNA encoding GFP, FIG. 22. The method, then: as §1
An orthogonal experimental design was applied to optimize the formulation of synthesized ionizable lipids, DOPE, Chol and DMG-PEG2000 that encapsulated samRNA-GFP. Library A contained 16 formulations with four factors and four levels.
In Library A, the 293T cells were treated in different amounts of LNPs ([…] of SamRNA-GFP). The delivery efficiency of LNPs-SamRNA-GFP of A-6, A-9, A-10, A-13 show more than 60% GFP expression when the 293T cells were transfected with 50, 25 and 12.5 ng of mRNA (FIG. 14). The samRNA-GFP delivery efficiency increased with the molar ratios of Chol and DOPE increase, while increased the molar ratios of P6A2 and DMG-PEG2000 reduced the samRNA-GFP delivery efficiency (FIG. 15).
A second orthogonal experimental design was applied to optimize the formulation of LNPs. In Library B, the 293T cells were treated with 50 or 12.5 ng of samRNA-GFP (FIG. 16).
Regarding `CCCCCCCCCCCCC(CCCCCCCCCC)CNCCC(=O)OC1CC(OC(=O)CCNCC(CCCCCCCCCC)CCCCCCCCCCCC)CC(OC(=O)CCNCC(CCCCCCCCCC)CCCCCCCCCCCC)C1` (stereo not drawn) [P7], the “delivery efficacies compared with FDA approved ionizable lipid MC3” value is given as “better delivery efficacies than FDA approved ionizable lipid MC3”.
Still for that read-out and setting: then `CCCCCCCCCCCCCCN(CCCCCCCCCCCCCC)CCC(=O)OC1CC(OC(=O)CCN(CCCCCCCCCCCCCC)CCCCCCCCCCCCCC)CC(OC(=O)CCN(CCCCCCCCCCCCCC)CCCCCCCCCCCCCC)C1` (stereo not drawn) [T7], with “better delivery efficacies than FDA approved ionizable lipid MC3”.
